Test results reported in patent US4524059A, “Fatty acid analogs” (The General Hospital Corporation, priority 1983, dated 1985).
Where two headings read alike, the source gives them in different places.

How the values were obtained:
[1] = Tissue distribution study in CD Fischer rats (organ radioactivity, NaI well scintillation counter); type: in vivo; details: rat
Experimental: CD Fischer rats (175-225 g) are anesthetized with ether and 0.2 ml ([…]) of [^11 C] BMHDA is injected through the femoral vein. The rats are sacrificed by ether asphyxiation at 5, 15, 30, and 60 minutes after dosing. The appropriate organs are excised and radioactivity measured in a NaI (T1) well scintillation counter.

[2] = Myocardial kinetics by positron tomography in adult, fasted, human volunteers; type: in vivo; details: 1-5 mCi intravenously
Experimental: (§1) The myocardial kinetics of BMHDA are evaluated in adult, fasted, human volunteers by positron tomography. Following attenuation measurements, volunteers receive between 1-5 mCi [^11 C] BMHDA intravenously and serial images are recorded for 30 min. No changes in heart rate, blood pressure, ECG, or respiratory rate are observed.

[3] = Imaging study of a canine heart one hour post-LAD ligation; type: in vivo; details: dog
Excerpt: In addition to its long retention time, [^11 C] […] An imaging study of a canine heart following [^11 C]

[4] = Heart rate, blood pressure, ECG and respiratory rate in human volunteers receiving the tracer; type: in vivo; details: 1-5 mCi intravenously
Experimental: as §1

[5] = dog, in vivo
Experimental: (§2) Mongrel dogs are anesthetized with sodium pentabarbitol (Diabatol, 0.55 cc/kg) and 0.8-3 mCi of [^11 C] MHDA is injected through a femoral vein. After 1 minute, serial blood samples are taken using a femoral vein catheter to determine the blood clearance rate. A 3 ml aliquot is taken every minute for the first 5 minutes, every 5 minutes for the next 15 minutes, and every 10 minutes for the next hour. The blood samples are weighed, counted in a well-scintillation counter, and the activity corrected for decay.
(§3) In order to determine the distribution over time of the [^11 C] […] Prior to imaging, each dog is placed between the camera heads, a phantom filled with an aqueous solution of ^68 Ga Cl3 is placed beneath the animal, and transmission images taken. Sequential images are collected for 1 minute each at the following times: 3 minutes, 8 minutes, 13 minutes, 28 minutes, 48 minutes, and 60 minutes. The images are corrected for decay and for photon attenuation.
(§4) In a companion biodistribution study, uptake in 2 dogs in different areas of the myocardium and average uptake for the whole heart are determined. […] Positron tomography images are obtained of the heart and liver of the 2 dogs 3, 13, and 48 minutes after injection with [^11 C] […] Into each dog there is injected, sequentially, [^11 C] […] HDA.

[6] = Biodistribution and positron tomography imaging of the heart and liver in mongrel dogs; details: dog, images 3, 13 and 48 minutes after injection, [^11 C] BMHDA versus [^11 C] HDA
Experimental: as §2, §3, §4

[7] = Sequential positron tomography imaging of the heart in a mongrel dog, 201Tl as control; type: in vivo
Experimental: Solutions of [^131 I]-BMPTA and, as a control, ^201 T1, are injected sequentially in a mongrel dog. After each injection, sequential images of the dog's heart are obtained using positron tomography.

[8] = Biodistribution in mice; type: in vivo
[9] = throughout the monitoring period

CCCCCCCCCCCCCCC(C)C[11C](=O)O (stereo not drawn) [[^11 C] BMHDA, [1-^11 C] beta-methylheptadecanoic acid]
extraction by the heart muscle ([1]; i.v. (femoral vein), 5-60 min): selectively extracted by the heart muscle
retention of radioactivity in the heart ([1]; i.v. (femoral vein), 5-60 min): retained in the heart for up to one hour
liver activity ([1]; i.v., 5-60 min): increases during the course of the study
lung activity ([1]; i.v., compared with heart activity): at all times lower than heart activity
time in which myocardial activity approaches a constant level [2]: ≤ 3 min
myocardial activity for the remainder of the observation ([2]; serial images for 30 min): constant for the remainder of the observation
uptake in normal areas of the heart [3]: very high uptake
uptake in the apex, the region in which the infarct is located [3]: much lower uptake
uptake pattern [3]: desirably selective uptake pattern
ECG [4]: No changes
blood pressure [4]: No changes
heart rate [4]: No changes
respiratory rate [4]: No changes
radioactivity in the myocardium over time [5]: remains constant throughout the experiment (60 minutes)
region of highest regional uptake in the myocardium [5]: left ventricle
wash-out from / retention in the myocardium [5]: much higher retention in the myocardium

CCCCCCCCCCCCCCCCC(=O)O [[^11 C] HDA, [^11 C] heptadecanoic acid]
wash-out from / retention in the myocardium [6]: rapidly washes out of the tissue

CC(CCCCCCCCCCCc1ccc([131I])cc1)CC(=O)O (stereo not drawn) [[^131 I]-BMPTA, Beta-methyl-omega-(p-[^131 I]iodophenyl) tetradecanoic acid]
retention by the heart muscle compared to ^201 T1 [7]: longer retention
time after injection over which clear images of the heart are obtained [7]: as long as two hours after the injection
activity in the heart over the initial 60 minute period ([7]; 60 minutes): remains essentially the same
time of peak uptake by the kidney [8]: 15 min
uptake in the heart ([8]; 5 minutes after injection): high levels of uptake
uptake in the liver ([8]; 5 minutes after injection): high levels of uptake
uptake by the kidney after the peak ([8]; 30 minutes after injection): declining slightly
maintenance of radioactivity in heart and liver ([8]; over the 30 minutes of the experiment): high levels of radioactivity generally being maintained
radioactivity in blood [8, 9]: lower throughout the monitoring period
radioactivity in skeletal muscle [8, 9]: lower throughout the monitoring period
radioactivity in the lungs [8, 9]: lower throughout the monitoring period
